# Source: patent US20100137239A1, “GEMCITABINE COMBINATION THERAPY” (GLOUCESTER PHARMACEUTICALS, priority 2006, published 2010)
# Where “and” joins values, the source holds several entries; their conditions need not be identical. Equal entries are not always repeated.
# Assays:
# c-Myc = experiment: Immunoblot of c-Myc in PANC-1 xenograft tumors after treatment; format: in vivo, human; conditions: FK228 5 mg/kg Q4Dx3; gemcitabine 80 mg/kg Q3Dx4; tumors at study completion; actin-normalized, vs controls
# Protocol: Abstract: To examine activity and mechanism of FK228, antitumor efficacy was tested in PANC-1 pancreatic adenocarcinoma model representing transformed Ras, either as a single agent or in combination with gemcitabine. Following PANC-1 study completion, tumor and sera were obtained from: • the vehicle control; • FK228 dosed at 5 mg/kg once every four days for three treatments (Q4Dx3); • Gemcitabine at 80 mg/kg (Q3Dx4); and • the drug combination. Expression of c-Myc, acetylated histones 3 and 4, and p21^waf1 was compared between control and FK228 groups by immunoblotting and was quantified following actin normalization. Serum levels of putative tumor products b-FGF and MMP-2 were quantified by human-specific ELISA. […]
# Tissue Biomarkers: Tumor levels of acetylated histone-4, histone-4, c-Myc, p21waf and β-actin were quantified by immunoblotting as described. […] The chemiluminescence signal was captured by autoradiography, quantified by densitometry and expressed as a ratio of actin in each sample lane. For each biomarker, means and standard errors were calculated in each treatment group. […]
# Expression of c-Myc, acetylated histones 3 and 4, and p21^waf1 was compared between control and FK228 groups by immunoblotting and was quantified following actin normalization. Serum levels of putative tumor products b-FGF and MMP-2 were quantified by human-specific ELISA. […]
# [1] = test system: BxPC-3 Human Pancreatic Tumor Xenograft; experiment: BxPC-3 xenograft tumor growth inhibition study (Example 3); format: in vivo, mouse xenograft; conditions: for % TGI: BxPC-3, Day 29; for activity according to NCI Standards / #PR/CR / FINAL TUMOR VOLUME (DAY 29) MEAN ± SEM / calculated TGI values (discussion): BxPC-3; for calculated TGI values (discussion): all evaluated doses and schedules
# Description: (Madison, Wis.). […] Tumor measurements were converted to cubic millimeter tumor volume using the formula^(5): […] Final mean tumor volume ±SEM for each group was reported; animals experiencing partial or complete tumor regressions or animals experiencing technical or drug-related deaths were censored from these calculations. […] TGI values for each treatment group are reported at study completion; these calculations are based on the final study day. […] If partial tumor regression was reported in multiple animals within one group, a mean value was determined. Individual mice lacking palpable tumors were classified as undergoing complete regression (CR). Animals experiencing partial or complete tumor regressions were censored from TGI calculations. However, data from these animals was included in statistical analysis calculations. In addition, weight data from these animals was included in daily and final group calculations. Tumor Necrosis-Degree of tumor necrosis was rated at each tumor measurement using the following arbitrary index: [table]
# [2] = FK228 2.5 mg/kg IV Q4Dx3, 2.5 mg/kg
# [3] = FK228 5 mg/kg IV Q4Dx3, 5 mg/kg
Compound,inhibition of c-Myc expression (c-Myc) [%],% TGI ([1]; FK228 2.5 mg/kg IV Q4Dx3),% TGI ([1]; FK228 5 mg/kg IV Q4Dx3),activity according to NCI Standards ([1]; FK228 2.5 mg/kg IV Q4Dx3),"#PR/CR [1, 2]","FINAL TUMOR VOLUME (DAY 29) MEAN ± SEM [1, 2] [mm^3]",activity according to NCI Standards ([1]; FK228 5 mg/kg IV Q4Dx3),"#PR/CR [1, 3]","FINAL TUMOR VOLUME (DAY 29) MEAN ± SEM [1, 3] [mm^3]",calculated TGI values (discussion) [1],single agent activity towards tumor model ([1]; wildtype ras BxPC-3),% TGI ([1]; Gemcitabine 40 mg/kg IP Q3Dx4) [%],% TGI ([1]; Gemcitabine 80 mg/kg IP Q3Dx4) [%],#PR/CR ([1]; Gemcitabine 40 mg/kg IP Q3Dx4),FINAL TUMOR VOLUME (DAY 29) MEAN ± SEM ([1]; Gemcitabine 40 mg/kg IP Q3Dx4) [mm^3],activity according to NCI Standards ([1]; Gemcitabine 40 mg/kg IP Q3Dx4),#PR/CR ([1]; Gemcitabine 80 mg/kg IP Q3Dx4),FINAL TUMOR VOLUME (DAY 29) MEAN ± SEM ([1]; Gemcitabine 80 mg/kg IP Q3Dx4) [mm^3],activity according to NCI Standards ([1]; Gemcitabine 80 mg/kg IP Q3Dx4)
"C/C=C1\NC(=O)[C@H]2CSSCC/C=C/[C@H](CC(=O)N[C@H](C(C)C)C(=O)N2)OC(=O)[C@H](C(C)C)NC1=O [FK228, romidepsin]",50,No TGI,No TGI,inactive,0/9 and 0/0,2440±643,inactive,0/9 and 0/0,2620±238,No tumor growth inhibition,inactive,,,,,,,,
"Nc1ccn([C@@H]2O[C@H](CO)[C@@H](O)C2(F)F)c(=O)n1 [Gemcitabine, gemcitabine]",50,,,,,,,,,less than 58%,,20,9,0/9 and 0/0,1683±426,inactive,0/9 and 0/0,1890±237,inactive
